# According to patent US20240239775A1, “FXR REGULATOR, PREPARATION METHOD THEREFOR, PHARMACEUTICAL COMPOSITION THEREOF AND USE THEREOF” (QINGDAO RUIJI MEDICAL TECHNOLOGY CO., LTD., priority 2021, published 2024):
# Biological target: T1, FXR (Homo sapiens, UniProt Q96RI1)
# T1 construct: 5 μL of 20 nM FXR-LBD Complete Coregulator buffer G; purchased ThermoFisher PV4833
# T1 sequence (Q96RI1 262-486 limits assumed): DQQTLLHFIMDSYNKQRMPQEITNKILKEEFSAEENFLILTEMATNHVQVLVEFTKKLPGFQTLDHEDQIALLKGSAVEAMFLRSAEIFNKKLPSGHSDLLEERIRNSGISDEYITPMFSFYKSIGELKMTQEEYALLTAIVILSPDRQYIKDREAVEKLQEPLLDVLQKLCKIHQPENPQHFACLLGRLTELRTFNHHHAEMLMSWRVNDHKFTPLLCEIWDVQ
# Experiment: FXR antagonist screening by TR-FRET (LanthaScreen TR-FRET FXR co-activation assay kit)
# Type: biochemical
# Conditions: Table 1.1, FXR antagonistic activity; TR-FRET with CDCA; geometric means of at least two independent runs
# Outline: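 FXR-LBD (20 nM working solution) mixed with compound, CDCA (200 μM working solution) as agonist, Fluorescein-SRC2-2 and Tb-anti-GST antibody in Coregulator buffer G; 10 h at room temperature. Coactivator recruitment read by TR-FRET, triplicate wells.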
row,Structure (SMILES),IC50 [µM]
1,"CCOC(=O)c1oc2ccc(S(=O)(=O)N(CCc3ccccc3)c3ccc(N4CCN(C(=O)OC(C)(C)C)CC4)nc3)cc2c1C [Example M8-75, ethyl 3-methyl-5-(N-(6-(4-(tert-butoxycarbonyl)piperazin-1-yl)pyridin-3-yl)-N-phenethylsulfamoyl)benzofuran-2-carboxylate]",50 to 100
2,"CCOC(=O)c1oc2ccc(S(=O)(=O)N(CCc3ccccc3)c3ccc(CN4CCN(C(=O)OC(C)(C)C)CC4)cc3)cc2c1C [Example M8-76, ethyl 3-methyl-5-(N-(4-((4-(tert-butoxycarbonyl)piperazin-1-yl)methyl)phenyl)-N-phenethylsulfamoyl)benzofuran-2-carboxylate]",50 to 100
3,"CCOC(=O)c1oc2ccc(S(=O)(=O)N(CCc3ccccc3)c3ccccc3N3CCN(C(=O)OC(C)(C)C)CC3)cc2c1C [Example M8-77, ethyl 3-methyl-5-(N-(2-(4-(tert-butoxycarbonyl)piperazin-1-yl)phenyl)-N-phenethylsulfamoyl)benzofuran-2-carboxylate]",50 to 100
4,"CCOC(=O)c1oc2ccc(S(=O)(=O)N(CCc3ccccc3)c3cccc(N4CCN(C)CC4)c3)cc2c1C [Example M8-78, ethyl 3-methyl-5-(N-(3-(4-methylpiperazin-1-yl)phenyl)-N-phenethylsulfamoyl)benzofuran-2-carboxylate]",50 to 100
5,"CCOC(=O)c1oc2ccc(S(=O)(=O)N(CCc3ccccc3)Cc3ccc(N4CCOCC4)cc3)cc2c1C [Example M8-79, ethyl 3-methyl-5-(N-(4-morpholinobenzyl)-N-phenethylsulfamoyl)benzofuran-2-carboxylate]",50 to 100
6,"CCOC(=O)c1oc2ccc(S(=O)(=O)N(CCc3ccccc3)Cc3ccc(N4CCN(C)CC4)cc3)cc2c1C [Example M8-80, ethyl 3-methyl-5-(N-(4-(4-methylpiperazin-1-yl)benzyl)-N-phenethylsulfamoyl)benzofuran-2-carboxylate]",50 to 100
7,"CCOC(=O)c1oc2ccc(S(=O)(=O)N(CCc3ccccc3)Cc3ccc(N4CCN(C(=O)OC(C)(C)C)CC4)cc3)cc2c1C [Example M8-81, ethyl 3-methyl-5-(N-(4-(4-(tert-butoxycarbonyl)piperazin-1-yl)benzyl)-N-phenethylsulfamoyl)benzofuran-2-carboxylate]",50 to 100
8,"CCOC(=O)c1oc2ccc(S(=O)(=O)N(CCc3ccccc3)Cc3ccc(Oc4ccccc4)cc3)cc2c1C [Example M8-86, ethyl 3-methyl-5-(N-phenethyl-N-(4-phenoxybenzyl)sulfamoyl)benzofuran-2-carboxylate]",50 to 100
9,"CCOC(=O)c1oc2ccc(S(=O)(=O)N(CCc3ccccc3)Cc3ccccc3N3CCN(C(=O)OC(C)(C)C)CC3)cc2c1C [Example M8-87, ethyl 3-methyl-5-(N-(2-(4-(tert-butoxycarbonyl)piperazin-1-yl)benzyl)-N-phenethylsulfamoyl)benzofuran-2-carboxylate]",50 to 100
10,"CCOC(=O)c1oc2ccc(S(=O)(=O)N(CCc3ccccc3)Cc3cccc(N4CCN(C(=O)OC(C)(C)C)CC4)c3)cc2c1C [Example M8-88, ethyl 3-methyl-5-(N-(3-(4-(tert-butoxycarbonyl)piperazin-1-yl)benzyl)-N-phenethylsulfamoyl)benzofuran-2-carboxylate]",50 to 100
11,"CCOC(=O)c1oc2ccc(S(=O)(=O)N(CCc3ccccc3)c3ccccc3N3CCNCC3)cc2c1C [Example M9-1, ethyl 3-methyl-5-(N-phenethyl-N-(2-(piperazin-1-yl)phenyl)sulfamoyl)benzofuran-2-carboxylate]",50 to 100
12,"CCOC(=O)c1oc2ccc(S(=O)(=O)N(CCc3ccccc3)Cc3ccccc3N3CCNCC3)cc2c1C [Example M9-2, ethyl 3-methyl-5-(N-phenethyl-N-(2-(piperazin-1-yl)benzyl)sulfamoyl)benzofuran-2-carboxylate]",50 to 100
13,"CCOC(=O)c1oc2ccc(S(=O)(=O)N(CCc3ccccc3)c3ccccc3N3CC[N+](C)(C)CC3)cc2c1C [Example M10-90, 4-(2-((2-(ethoxycarbonyl)-3-methyl-N-phenethylbenzofuran)-5-sulfonylamino)phenyl)-1,1-dimethylpiperazin-1-ium]",50 to 100
14,"CCOC(=O)c1oc2ccc(S(=O)(=O)N(CCc3ccccc3)c3ccccc3N3CCN(C(C)=O)CC3)cc2c1C [Example M10-91, ethyl 3-methyl-5-(N-(2-(4-acetylpiperazin-1-yl)phenyl)-N-phenethylsulfamoyl)benzofuran-2-carboxylate]",50 to 100
15,"CCOC(=O)c1oc2ccc(S(=O)(=O)N(CCc3ccccc3)c3ccccc3N3CCN(S(C)(=O)=O)CC3)cc2c1C [Example M10-93, ethyl 3-methyl-5-(N-(2-(4-(methylsulfonyl)piperazin-1-yl)phenyl)-N-phenethylsulfamoyl)benzofuran-2-carboxylate]",50 to 100
16,CCOC(=O)c1oc2ccc(S(=O)(=O)N(CCc3ccccc3)c3ccccc3N3CCN(C(=O)CC(C)(C)C)CC3)cc2c1C [Example M10-94],50 to 100
17,CCOC(=O)c1oc2ccc(S(=O)(=O)N(CCc3ccccc3)c3ccccc3N3CCN(Cc4ccccc4)CC3)cc2c1C [Example M10-95],50 to 100
18,CCOC(=O)c1oc2ccc(S(=O)(=O)N(CCc3ccccc3)c3ccccc3N3CCN(C(=O)c4ccccc4)CC3)cc2c1C [Example M10-96],50 to 100
19,"CCOC(=O)c1oc2ccc(S(=O)(=O)N(CCc3ccccc3)Cc3ccccc3N3CCN(C)CC3)cc2c1C [Example M10-98, ethyl 3-methyl-5-(N-(2-(4-methylpiperazin-1-yl)benzyl)-N-phenethylsulfamoyl)benzofuran-2-carboxylate]",50 to 100
20,"CCOC(=O)c1oc2ccc(S(=O)(=O)N(CCc3ccccc3)Cc3ccccc3N3CC[N+](C)(C)CC3)cc2c1C [Example M10-99, 4-(2-((2-(ethoxycarbonyl)-3-methyl-N-benzylethylbenzofuran)-5-sulfonylamino)phenyl)-1,1-dimethylpiperazin-1-ium]",50 to 100
21,"CCOC(=O)c1oc2ccc(S(=O)(=O)N(CCc3ccccc3)Cc3ccccc3N3CCN(C(C)=O)CC3)cc2c1C [Example M10-100, ethyl 3-methyl-5-(N-(2-(4-acetylpiperazin-1-yl)benzyl)-N-phenethylsulfamoyl)benzofuran-2-carboxylate]",50 to 100
22,"CCOC(=O)c1oc2ccc(S(=O)(=O)N(CCc3ccccc3)Cc3ccccc3N3CCN(S(C)(=O)=O)CC3)cc2c1C [Example M10-102, ethyl 3-methyl-5-(N-(2-(4-methanesulfonylpiperazin-1-yl)benzyl)-N-phenethylsulfamoyl)benzofuran-2-carboxylate]",50 to 100
23,"CCOC(=O)c1oc2ccc(S(=O)(=O)N(CCc3ccccc3)Cc3ccccc3N3CCN(C(=O)CC(C)(C)C)CC3)cc2c1C [Example M10-103, ethyl 3-methyl-5-(N-(2-(4-(3,3-dimethylbutyryl)piperazin-1-yl)benzyl)-N-phenethylsulfamoyl)benzofuran-2-carboxylate]",50 to 100
24,"CCOC(=O)c1oc2ccc(S(=O)(=O)N(CCc3ccccc3)Cc3ccccc3N3CCN(Cc4ccccc4)CC3)cc2c1C [Example M10-104, ethyl 3-methyl-5-(N-(2-(4-benzylpiperazin-1-yl)benzyl)-N-phenethylsulfamoyl)benzofuran-2-carboxylate]",50 to 100
25,"CCOC(=O)c1oc2ccc(S(=O)(=O)N(CCc3ccccc3)Cc3ccccc3N3CCN(C(=O)c4ccccc4)CC3)cc2c1C [Example M10-105, ethyl 3-methyl-5-(N-(2-(4-benzoylpiperazin-1-yl)benzyl)-N-phenethylsulfamoyl)benzofuran-2-carboxylate]",50 to 100

# Same assay, conditions: Table 1.2, FXR antagonistic activity; TR-FRET with CDCA; geometric means of at least two independent runs
row,Structure (SMILES),IC50 [µM]
1,"CCOC(=O)c1oc2ccc(S(=O)(=O)N(CCc3ccccc3)c3ccccc3N3CCN(C(=O)c4ccc(C)cc4)CC3)cc2c1C [Example M10-106, ethyl 3-methyl-5-(N-(2-(4-(4-methylbenzoyl)piperazin-1-yl)phenyl)-N-phenethylsulfamoyl)benzofuran-2-carboxylate]",50 to 100
2,"CCOC(=O)c1oc2ccc(S(=O)(=O)N(CCc3ccccc3)c3ccccc3N3CCN(C(=O)c4ccccc4C)CC3)cc2c1C [Example M10-107, Ethyl 3-methyl-5-(N-(2-(4-(2-methylbenzoyl)piperazin-1-yl)phenyl)-N-phenethylsulfamoyl)benzofuran-2-carboxylate]",50 to 100
3,"CCOC(=O)c1oc2ccc(S(=O)(=O)N(CCc3ccccc3)c3ccccc3N3CCN(C(=O)c4cccc(C)c4)CC3)cc2c1C [Example M10-108, ethyl 3-methyl-5-(N-(2-(4-(3-methylbenzoyl)piperazin-1-yl)phenyl)-N-phenethylsulfamoyl)benzofuran-2-carboxylate]",50 to 100
4,"CCOC(=O)c1oc2ccc(S(=O)(=O)N(CCc3ccccc3)c3ccccc3N3CCN(C(=O)c4ccc(NC(C)=O)cc4)CC3)cc2c1C [Example M10-109, Ethyl 5-(N-(2-(4-(4-Acetylaminobenzoyl)piperazin-1-yl)phenyl)-N-phenethylsulfamoyl)-3-methyl benzofuran-2-carboxylate]",50 to 100
5,CCOC(=O)c1oc2ccc(S(=O)(=O)N(CCc3ccccc3)c3ccccc3N3CCN(C(=O)c4ccc(C(F)(F)F)cc4)CC3)cc2c1C [Example M10-110],50 to 100
6,CCOC(=O)c1oc2ccc(S(=O)(=O)N(CCc3ccccc3)c3ccccc3N3CCN(C(=O)c4ccc(C#N)cc4)CC3)cc2c1C [Example M10-111],50 to 100
